Experiment [1] concerns the target Isoform A1-A of Heterogeneous nuclear ribonucleoprotein A1 (A1-A) (Homo sapiens, UniProt P09651). In words: Surface Plasmon Resonance (SPR) Assay. To be noted: pH 4. The text has this:
(§1) Recombinant full-length hnRNPA1 (aa 1-320) and truncated versions of hnRNPA1, including the N-terminal RNA binding domain (aa 1-196), the middle region (aa 182-268), and the C-terminal region (aa 268-320), were individually covalently coupled to a dextran matrix (CM5 chip) using a Biacore T200 system (GE Healthcare), following the manufacturer's protocols. Immobilized proteins were activated with N-hydroxysuccinimide and 1-ethyl-3-(3-dimethylaminopropyl) carbodiimide to form a […] between carboxyl moieties on the dextran and […] on the protein. hnRNPA1 variants were dissolved in 10 mM acetate buffer (full-length, pH 4; N-terminal RNA binding domain and the C-terminal region, pH 4.5; middle region, pH 5) to a concentration of 20 μg/ml and flowed over the activated surface for 5 min with PBS. Unreacted groups were blocked with ethanolamine. PBS containing 0.05% (v/v) P20 (surfactant) and 5% DMSO was used for priming and conditioning the surface of the chips. Quercetin was serially diluted (from 200 to 3 μM) in PBS buffer and maintained in DMSO (5% (v/v)) (final concentrations from 10 to 0.15 μM). The baseline response was determined for 120 s (30 μl/min) before perfusing the immobilized proteins with the compounds to allow association to occur. Dissociation was then monitored over a period of an additional 120 s. […]

Experiment [2] addresses Isoform A1-A of Heterogeneous nuclear ribonucleoprotein A1 (A1-A) 68-320] (Homo sapiens, UniProt P09651). The experiment is described as follows: Surface Plasmon Resonance (SPR) Assay. The conditions noted are these: pH 4.
Excerpt: as §1

One may read the Kd as the free concentration of one partner at which half of the binding sites on the other are occupied at equilibrium, for simple one-to-one binding. The low end stands for higher affinity, the high end for lower affinity.

Chain of Isoform A1-A of Heterogeneous nuclear ribonucleoprotein A1 (A1-A) (P09651 as listed by the source): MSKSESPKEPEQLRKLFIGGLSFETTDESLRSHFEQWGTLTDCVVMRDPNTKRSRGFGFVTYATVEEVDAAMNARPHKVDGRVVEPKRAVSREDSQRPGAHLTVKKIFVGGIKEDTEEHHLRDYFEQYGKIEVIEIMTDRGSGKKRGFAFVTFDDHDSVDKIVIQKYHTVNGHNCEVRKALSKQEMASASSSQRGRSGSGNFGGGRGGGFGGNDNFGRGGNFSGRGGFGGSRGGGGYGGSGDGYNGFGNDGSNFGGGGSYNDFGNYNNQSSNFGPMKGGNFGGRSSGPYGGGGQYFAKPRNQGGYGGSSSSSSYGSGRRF
Chain of Isoform A1-A of Heterogeneous nuclear ribonucleoprotein A1 (A1-A) 68-320] (P09651 320-372): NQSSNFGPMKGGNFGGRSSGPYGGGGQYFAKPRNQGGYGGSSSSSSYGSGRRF

On to `O=c1c(O)c(-c2ccc(O)c(O)c2)oc2cc(O)cc(O)c12` [2-(3,4-dihydroxyphenyl)-3,5,7-trihydroxy-chromone;hydrate], for which the Kd was 8.9 µM in experiment [1] and 1.7 µM in experiment [2].

For the origin of these results see BindingDB's records for doi:10.1074/jbc.M114.553248 (National Taiwan University, 2014).
